Test results: patent publication EP4813403A1, “USE OF GLP-1R/GIPR DOUBLE-TARGET AGONIST IN PREPARING ANIMAL DRUG” (Hangzhou Zhongmeihuadong Pharmaceutical Co., Ltd., priority 2023, dated 2025)

Tests used:
[1] = Pharmacokinetics in cynomolgus monkeys; details: cynomolgus monkey, in vivo, sc
Protocol: After subcutaneous or intravenous administration to cynomolgus monkeys, plasma was collected and the drug concentration in plasma was determined to illustrate the in vivo pharmacokinetic properties of the compound according to the present invention. […] 70.0 µL of thawed plasma sample was taken. 70 µL of acetonitrile (containing 1 ng/ml of the internal standard) was added to precipitate protein. […] The mixture was vortexed for 5 minutes. 10 µL of the mixture solution was sampled and injected into the LC-MS/MS to determine the drug concentration in plasma. […] Table 9 Average Pharmacokinetic Parameters after Single Subcutaneous Administration to Cynomolgus Monkeys

db/db mice = test: Multiple administration experiment on db/db mice; assay type: in vivo; details: db/db mice, s.c. every 3 days for 4 weeks, Mean±SEM, 6 mice
Protocol: "Minimum effective dose" as disclosed in the present invention refers to the minimum administration dose at which the drug effect is produced.
"Efficacy dose" as disclosed in the present invention refers to the administration dose at which the drug effect is produced.
In this study, 7-8 week old male db/db mice were used. The db/db mice were placed in an individual ventilated cage (IVC) facility with a controlled temperature (20-26°C) and humidity (40-70%) and a controlled 12:12 h light-dark cycle. The mice received food and water ad libitum. Blood were sampled at the tail tip, and the base blood glucose was measured by a Roche blood glucose meter. The mice were randomly divided into groups according to the initial blood glucose and initial body weight (n=6/group), and each group had similar body weight and blood glucose.
The mice were subcutaneously administrated every 3 days for 4 weeks. Subcutaneous administration was conducted on days 1, 4, 7, 10, 13, 16, 19, 22 and 25. Random blood glucose was recorded every 3 days throughout the study. On day 28, the fasting blood glucose was measured. Then the blood was collected by orbital blood sampling. After the orbital blood sampling, the animals were sacrificed, and the liver was taken and weighed. After 1 to 2 hours, the collected blood was centrifuged at 3000 rpm for 10 min to separate the serum. Biochemical indicators such as triglyceride (TG), alanine aminotransferase (ALT), and total bilirubin (TBIL) were determined with a biochemical analyzer. The data results were statistically analyzed using GraphPad Prism8, and the statistical differences among the groups were analyzed following T-Test. Significant differences were identified at p<0.05.

[2] = Pharmacokinetics in C57 mice; details: C57, mouse, in vivo
Protocol: After subcutaneous or intravenous administration to C57 mice, plasma was collected and the drug concentration in plasma was determined to illustrate the in vivo pharmacokinetic properties of the compound according to the present invention. […] 20.0 µL of thawed plasma sample was taken. 20 µL of 50% aqueous methanol solution (containing 100 ng mL^-1 Tolbutamide) and 60 µL of acetonitrile were added sequentially to precipitate protein. The mixture was vortexed for 5 minutes, and centrifuged at 4815 rpm for 8 minutes. 50.0 µL of the supernatant was taken, into which 50.0 µL of 0.5% aqueous formic acid solution was added. The mixture was vortexed for 5 minutes. 50 µL of the mixture solution was sampled and injected into the LC-MS/MS to determine the drug concentration in plasma. Based on the drug concentration in plasma of the compounds in C57 mice, the pharmacokinetic parameters were calculated by applying the software Winnolin 8.3 in a non-compartmental model, and the results were shown in Table 7 and Table 8 below. Table 7 Average Pharmacokinetic Parameters after Single Subcutaneous Administration to Mice

CC[C@H](C)[C@H](NC(=O)C(C)(C)NC(=O)[C@H](Cc1ccc(O)cc1)NC(=O)[C@H](CC(=O)O)NC(=O)[C@H](CO)NC(=O)[C@@H](NC(=O)C(C)(Cc1ccccc1)NC(=O)[C@@H](NC(=O)CNC(=O)[C@H](CCC(=O)O)NC(=O)C(C)(C)NC(=O)[C@@H](N)Cc1ccc(O)cc1)[C@@H](C)O)[C@@H](C)O)C(=O)NC(C)(C)C(=O)N[C@@H](CC(C)C)C(=O)N[C@@H](CC(=O)O)C(=O)N[C@@H](CCCCN)C(=O)N[C@@H](CCC(N)=O)C(=O)N[C@@H](C)C(=O)N[C@@H](CCC(N)=O)C(=O)N[C@@H](C)C(=O)N[C@@H](CCC(=O)O)C(=O)N[C@@H](Cc1ccccc1)C(=O)N[C@H](C(=O)N[C@@H](CCCCN)C(=O)N[C@@H](Cc1c[nH]c2ccccc12)C(=O)N[C@@H](CC(C)C)C(=O)N[C@@H](CC(C)C)C(=O)N[C@@H](CCCCNC(=O)COCCOCCNC(=O)COCCOCCNC(=O)CC[C@H](NC(=O)CCCCCCCCCCCCCCCCCCCCC(=O)O)C(=O)O)C(=O)NCC(=O)NCC(=O)N1CCC[C@H]1C(=O)N[C@@H](CO)C(=O)N[C@@H](CO)C(=O)NCC(=O)N[C@@H](C)C(=O)N1CCC[C@H]1C(=O)N1CCC[C@H]1C(=O)N1CCC[C@H]1C(=O)N[C@@H](CO)C(=O)N[C@@H](CCCCN)C(N)=O)C(C)C (some centres unmarked) [Compound P017]
Tmax [1]: 48 ± 24 h
half-life [1]: 44.3 ± 4.8 h
AUC 4-25 day Glu (db/db mice; 3 nmol/kg): 303.78 ± 33.24 mmol·days/L
D28 FBG(Fasting Blood Glucose) (db/db mice; 3 nmol/kg): 11.68 ± 1.7 mmol/L
Liver Weight (db/db mice; 3 nmol/kg): 2.14 ± 0.08 g
Serum ALT (db/db mice; 3 nmol/kg): 105.16±7.1 U/L
Serum TBIL (db/db mice; 3 nmol/kg): 0.88 ± 0.26 µmol/L
Serum TG (db/db mice; 3 nmol/kg): 1.58 ± 0.17 mmol/L
AUC 4-25 day Glu (db/db mice; 10 nmol/kg): 249.65 ± 47.65 mmol·days/L
D28 FBG(Fasting Blood Glucose) (db/db mice; 10 nmol/kg): 11.95 ± 2.51 mmol/L
Liver Weight (db/db mice; 10 nmol/kg): 2.11 ± 0.09 g
Serum ALT (db/db mice; 10 nmol/kg): 141.65±12.72 U/L
Serum TBIL (db/db mice; 10 nmol/kg): 1.59 ± 0.07 µmol/L
Serum TG (db/db mice; 10 nmol/kg): 1.19 ± 0.05 mmol/L
AUC 4-25 day Glu (db/db mice; 30 nmol/kg): 294.96 ± 11.96 mmol·days/L
D28 FBG(Fasting Blood Glucose) (db/db mice; 30 nmol/kg): 10.08 ± 0.79 mmol/L
Liver Weight (db/db mice; 30 nmol/kg): 2.35 ± 0.09 g
Serum ALT (db/db mice; 30 nmol/kg): 176.48±51.6 U/L
Serum TBIL (db/db mice; 30 nmol/kg): 1.11 ± 0.1 µmol/L
Serum TG (db/db mice; 30 nmol/kg): 1.09 ± 0.06 mmol/L

CC[C@H](C)[C@H](NC(=O)C(C)(C)NC(=O)[C@H](Cc1ccc(O)cc1)NC(=O)[C@H](CC(=O)O)NC(=O)[C@H](CO)NC(=O)[C@@H](NC(=O)C(C)(Cc1ccccc1)NC(=O)[C@@H](NC(=O)CNC(=O)[C@H](CCC(=O)O)NC(=O)C(C)(C)NC(=O)[C@@H](N)Cc1ccc(O)cc1)[C@@H](C)O)[C@@H](C)O)C(=O)NC(C)(C)C(=O)N[C@@H](CC(C)C)C(=O)N[C@@H](CC(=O)O)C(=O)N[C@@H](CCCCN)C(=O)N[C@@H](CCC(N)=O)C(=O)N[C@@H](C)C(=O)N[C@@H](CCC(N)=O)C(=O)N[C@@H](C)C(=O)N[C@@H](CCC(=O)O)C(=O)N[C@@H](Cc1ccccc1)C(=O)N[C@H](C(=O)N[C@@H](CCCCN)C(=O)N[C@@H](Cc1c[nH]c2ccccc12)C(=O)N[C@@H](CC(C)C)C(=O)N[C@@H](CC(C)C)C(=O)N[C@@H](CCCCNC(=O)COCCOCCNC(=O)COCCOCCNC(=O)COCCOCCNC(=O)CC[C@H](NC(=O)CCCCCCCCCCCCCCCCCCCCC(=O)O)C(=O)O)C(=O)NCC(=O)NCC(=O)N1CCC[C@H]1C(=O)N[C@@H](CO)C(=O)N[C@@H](CO)C(=O)NCC(=O)N[C@@H](C)C(=O)N1CCC[C@H]1C(=O)N1CCC[C@H]1C(=O)N1CCC[C@H]1C(=O)N[C@@H](CO)C(=O)N[C@@H](CCCCN)C(N)=O)C(C)C (some centres unmarked) [Compound P020]
Tmax [1]: 22.7 ± 10.1 h
half-life [1]: 67.4 ± 9.47 h
AUC 4-25 day Glu (db/db mice; 3 nmol/kg): 268.28 ± 24.64 mmol·days/L
D28 FBG(Fasting Blood Glucose) (db/db mice; 3 nmol/kg): 9.6 ± 1.32 mmol/L
Liver Weight (db/db mice; 3 nmol/kg): 2.03 ± 0.09 g
Serum ALT (db/db mice; 3 nmol/kg): 214.56±43.83 U/L
Serum TBIL (db/db mice; 3 nmol/kg): 1.54 ± 0.25 µmol/L
Serum TG (db/db mice; 3 nmol/kg): 1.37 ± 0.12 mmol/L
AUC 4-25 day Glu (db/db mice; 10 nmol/kg): 290.78 ± 27.25 mmol·days/L
D28 FBG(Fasting Blood Glucose) (db/db mice; 10 nmol/kg): 10.7 ± 1.62 mmol/L
Liver Weight (db/db mice; 10 nmol/kg): 2.09 ± 0.1 g
Serum ALT (db/db mice; 10 nmol/kg): 113.48±24.18 U/L
Serum TBIL (db/db mice; 10 nmol/kg): 0.91 ± 0.05 µmol/L
Serum TG (db/db mice; 10 nmol/kg): 1.07 ± 0.03 mmol/L
AUC 4-25 day Glu (db/db mice; 30 nmol/kg): 184.18 ± 22.44 mmol·days/L
D28 FBG(Fasting Blood Glucose) (db/db mice; 30 nmol/kg): 8.22 ± 1.07 mmol/L
Liver Weight (db/db mice; 30 nmol/kg): 1.83 ± 0.16 g
Serum ALT (db/db mice; 30 nmol/kg): 112.47±16.69 U/L
Serum TBIL (db/db mice; 30 nmol/kg): 0.95 ± 0.28 µmol/L
Serum TG (db/db mice; 30 nmol/kg): 1.2 ± 0.07 mmol/L
AUC(0-inf) ([2]; iv): 17400 ng·h/mL
AUC(0-t) ([2]; iv): 16300 ng·h/mL
C0 ([2]; iv): 1820 ng/mL
half-life ([2]; iv): 16.7 h
MRT ([2]; iv, MRT(0-t)): 16.8 h
MRT ([2]; iv, MRT(0-∞)): 21.8 h
AUC(0-inf) ([2]; sc): 21100 ng·h/mL
AUC(0-t) ([2]; sc): 19000 ng·h/mL
Cmax ([2]; sc): 836 ng/mL
Tmax ([2]; sc): 4.25 h
half-life ([2]; sc): 19.9 h
MRT ([2]; sc, MRT(0-t)): 21.8 h
MRT ([2]; sc, MRT(0-∞)): 29.4 h
